Assay results as given in US20060211703A1, “Substituted alkyl-pyridazinones for the treatment of memory and learning malfunctions” (priority 2003, published 2006).
Entries after “also recorded” stand apart in the source; their conditions may differ.

Tests used:
[1] = known anxiolytic compounds, comparison statement; cited from earlier work
[2] = test system: Male Wistar rats; assay: step through-type passive avoidance learning test; format: in vivo, rat; conditions: 30 min before test, FIG. 1
Protocol: Male Wistar rats weighing 200-220 g were used. The animals were obtained from Charles River Co. They were kept in a room with normal 12-12 h light dark cycle (light on: 06:00) at relative humidity of 60±10%.
The experiment was performed in a five-channel “step through”-type passive avoidance learning apparatus. The equipment consisted of to adjacent Plexi-glass box of 20×20×16 cm. One of them was made of regular transparent Plexi-glass and the other one was made of black, non-transparent Plexi-glass. The boxes were connected with a 7.5×8 cm passageway, equipped with a computer-controlled guillotine-door. The passage of the rats through the door was detected by infrared photocells arranged in two parallel lines in the opening of the passageway. The door was automatically closed when the animals passed through. The dark compartment was equipped with stainless steel grid floor through which electric foot shocks could have been delivered to the animals. […]
The individually numbered animals were placed into the light compartment of the equipment. […] Step through latency was automatically determined. […]
After 24 h the animals were placed again in the light compartment of the test apparatus and step-through latency was measured as described at Acquisition day, except that no foot shock was applied to the animals in any group on the second day. […]

Compound | effect on memory [1] | step-through latency into the dark compartment (effect on acquisition / learning) ([2]; 1 mg/kg ip. at Day 1 (Acquisition), latency measured at Day 2, vs shocked vehicle control) | step-through latency into the dark compartment (effect on recall / long term memory) ([2]; 1 mg/kg ip. at Day 2 (Retention), vs shocked vehicle control)
CN1C(=O)CN=C(c2ccccc2)c2cc(Cl)ccc21 [diazepam] | deleterious |  | 
O=c1cc(NCCN2CCN(c3cccc4c3OCCO4)CC2)cn[nH]1 [compound A, 5-[2-[4-(2,3-dihydro-benzo[1,4]dioxine-5-yl)-piperazine-1-yl]-ethylamine]-2H-pyridazine-3-one] |  | significantly increased; also recorded: further increased | significantly increased
